Test results as given in ChEMBL document CHEMBL4818987, “Recent advances of podophyllotoxin/epipodophyllotoxin hybrids in anticancer activity, mode of action, and structure-activity relationship: An update (2010-2020)” (Eur J Med Chem, 2020).

Experiments:
K562 = test: Cytotoxicity against human K562 cells incubated for 72 hrs by CCK8 assay; format: functional, cell-based; conditions: K562, 72 h
K562/Adr = test: Cytotoxicity against human K562/ADR cells incubated for 72 hrs by CCK8 assay; format: functional, cell-based
[1] = Resistance index, ratio of IC50 for human K562/ADR cells to IC50 for human K562 cells; format: functional
Calu-1 = test: Antiproliferative activity against human Calu-1 cells incubated for 24 hrs by MTT assay; format: functional, cell-based; conditions: Calu-1, 24 h
HeLa [2] = test: Antiproliferative activity against human HeLa cells incubated for 24 hrs by MTT assay; format: functional, cell-based
A549 [3] = test: Antiproliferative activity against human A549 cells incubated for 24 hrs by MTT assay; format: functional, cell-based; conditions: A549, 24 h
HepG2 [4] = test: Antiproliferative activity against human HepG2 cells incubated for 48 hrs by MTT assay; format: functional, cell-based; conditions: HepG2, 48 h
A549 [5] = test: Antiproliferative activity against human A549 cells incubated for 48 hrs by MTT assay; format: functional, cell-based; conditions: A549, 48 h
HeLa [6] = test: Antiproliferative activity against human HeLa cells incubated for 48 hrs by MTT assay; format: functional, cell-based
MCF7 = test: Antiproliferative activity against human MCF7 cells incubated for 48 hrs by MTT assay; format: functional, cell-based; conditions: MCF7, 48 h
A549 [7] = test: Antiproliferative activity against human A549 cells incubated for 3 days by MTT assay; format: functional, cell-based; conditions: A549, 72 h
HepG2 [8] = test: Antiproliferative activity against human HepG2 cells incubated for 3 days by MTT assay; format: functional, cell-based; conditions: HepG2, 72 h
HCT-116 = test: Antiproliferative activity against human HCT116 cells incubated for 3 days by MTT assay; format: functional, cell-based; conditions: HCT-116, 72 h

Row | Structure (SMILES) | IC50 (Calu-1) [nM] | IC50 (HeLa [2]) [nM] | IC50 (A549 [3]) [nM] | IC50 (HepG2 [4]) [nM] | IC50 (A549 [5]) [nM] | IC50 (HeLa [6]) [nM] | IC50 (MCF7) [nM] | further results
1 | COc1cccc(/C=C/C(=O)O[C@H]2c3cc4c(cc3[C@@H](c3cc(OC)c(OC)c(OC)c3)[C@H]3C(=O)OC[C@@H]32)OCO4)c1 |  |  |  |  |  |  |  | IC50 (K562): 11 nM; IC50 (K562/Adr): 11 nM; Ratio IC50 [1]: 1.1
2 | COc1cc([C@@H]2c3cc4c(cc3[C@H](OC(=O)CCCCC3CCSC(c5ccc(Br)cc5)S3)[C@H]3COC(=O)[C@H]23)OCO4)cc(OC)c1OC (some centres not stated) | 2680 | 2680 | 2680 |  |  |  |  | 
3 | COc1cc([C@@H]2c3cc4c(cc3[C@H](O[C@H]3CC[C@@H](O)[C@H](C)O3)[C@H]3COC(=O)[C@H]23)OCO4)cc(OC)c1OC |  |  |  | 41.6 | 41.6 | 41.6 | 41.6 | 
4 | COc1cc([C@@H]2c3cc4c(cc3[C@H](OC(=O)CCCCC3CCSC(c5ccc(Cl)cc5Cl)S3)[C@H]3COC(=O)[C@H]23)OCO4)cc(OC)c1OC (some centres not stated) | 2680 | 2680 | 2680 |  |  |  |  | 
5 | COc1cc([C@@H]2c3cc4c(cc3[C@H](OC(=O)CCCCC3CCSC(c5ccccc5C)S3)[C@H]3COC(=O)[C@H]23)OCO4)cc(OC)c1OC (some centres not stated) | 2680 | 2680 | 2680 |  |  |  |  | 
6 | COc1cc([C@@H]2c3cc4c(cc3[C@@H](O[C@@H]3CC[C@@H](O)[C@H](C)O3)[C@H]3COC(=O)[C@H]23)OCO4)cc(OC)c1O |  |  |  | 41.6 | 41.6 | 41.6 | 41.6 | 
7 | COc1cc([C@@H]2c3cc4c(cc3[C@H](OC(=O)CCCCC3CCSC(c5cccc(Cl)c5Cl)S3)[C@H]3COC(=O)[C@H]23)OCO4)cc(OC)c1OC (some centres not stated) | 2680 | 2680 | 2680 |  |  |  |  | 
8 | COc1cc([C@@H]2c3cc4c(cc3[C@H](OC(=O)/C=C/c3ccco3)[C@H]3COC(=O)[C@H]23)OCO4)cc(OC)c1OC |  |  |  |  |  |  |  | IC50 (K562): 11 nM; IC50 (K562/Adr): 11 nM; Ratio IC50 [1]: 1.1
9 | CC[C@H]1O[C@H](O[C@@H]2c3cc4c(cc3[C@@H](c3cc(OC)c(O)c(OC)c3)[C@H]3C(=O)OC[C@@H]32)OCO4)CC[C@H]1O |  |  |  | 41.6 | 41.6 | 41.6 | 41.6 | 
10 | COc1cc([C@@H]2c3cc4c(cc3[C@H](OC(=O)/C=C/c3ccc(Cl)cc3)[C@H]3COC(=O)[C@H]23)OCO4)cc(OC)c1OC |  |  |  |  |  |  |  | IC50 (K562): 11 nM; IC50 (K562/Adr): 11 nM; Ratio IC50 [1]: 1.1
11 | COc1cc([C@@H]2c3cc4c(cc3[C@@H](O[C@H]3CC[C@@H](O)[C@@H](C)O3)[C@H]3COC(=O)[C@H]23)OCO4)cc(OC)c1O |  |  |  | 41.6 | 41.6 | 41.6 | 41.6 | 
12 | COc1ccc(/C=C/C(=O)O[C@H]2c3cc4c(cc3[C@@H](c3cc(OC)c(OC)c(OC)c3)[C@H]3C(=O)OC[C@@H]32)OCO4)cc1 |  |  |  |  |  |  |  | IC50 (K562): 11 nM; IC50 (K562/Adr): 11 nM; Ratio IC50 [1]: 1.1
13 | COc1ccccc1C1SCCC(CCCCC(=O)O[C@H]2c3cc4c(cc3[C@@H](c3cc(OC)c(OC)c(OC)c3)[C@H]3C(=O)OC[C@@H]32)OCO4)S1 (some centres not stated) | 2680 | 2680 | 2680 |  |  |  |  | 
14 | COc1cc([C@@H]2c3cc4c(cc3[C@H](OC(=O)CCCCC3CCSC(c5ccccc5Cl)S3)[C@H]3COC(=O)[C@H]23)OCO4)cc(OC)c1OC (some centres not stated) | 2680 | 2680 | 2680 |  |  |  |  | 
15 | COc1cc([C@@H]2c3cc4c(cc3[C@H](OC(=O)/C=C/c3cccc(Cl)c3)[C@H]3COC(=O)[C@H]23)OCO4)cc(OC)c1OC |  |  |  |  |  |  |  | IC50 (K562): 11 nM; IC50 (K562/Adr): 11 nM; Ratio IC50 [1]: 1.1
16 | COc1cc([C@@H]2c3cc4c(cc3[C@@H](NC(=S)NC(=O)c3ccccc3I)[C@H]3COC(=O)[C@H]23)OCO4)cc(OC)c1OC |  |  |  |  |  |  |  | IC50 (A549 [7]): 100 nM; IC50 (HepG2 [8]): 100 nM; IC50 (HCT-116): 100 nM
17 | COc1cc([C@@H]2c3cc4c(cc3[C@@H](O[C@@H]3CC[C@@H](O)[C@H](C(C)C)O3)[C@H]3COC(=O)[C@H]23)OCO4)cc(OC)c1O |  |  |  | 41.6 | 41.6 | 41.6 | 41.6 | 
18 | COc1cc([C@@H]2c3cc4c(cc3[C@H](OC(=O)CCCCC3CCSC(c5ccc(C(C)C)cc5)S3)[C@H]3COC(=O)[C@H]23)OCO4)cc(OC)c1OC (some centres not stated) | 2680 | 2680 | 2680 |  |  |  |  | 
19 | CCC[C@H]1O[C@@H](O[C@@H]2c3cc4c(cc3[C@@H](c3cc(OC)c(O)c(OC)c3)[C@H]3C(=O)OC[C@@H]32)OCO4)CC[C@H]1O |  |  |  | 41.6 | 41.6 | 41.6 | 41.6 | 
20 | COc1cc([C@@H]2c3cc4c(cc3[C@@H](O[C@@H]3CC[C@@H](O)[C@@H](C(C)C)O3)[C@H]3COC(=O)[C@H]23)OCO4)cc(OC)c1O |  |  |  | 41.6 | 41.6 | 41.6 | 41.6 | 
